This is an account of results in patent US9572858B2, “Composition for treating and preventing benign prostatic hyperplasia” (GemVax & KAEL Co., Ltd., priority 2013, dated 2017).

The subject of assay [1] is BPH induced animal model (sulpiride). Description: Organ weights in sulpiride BPH induced animal model. Format: in vivo, Sprague-Dawley male rats. The conditions noted are these: rat.
Another assay has as its system 5α-reductase. In words: Expression of 5α-reductase in ventral prostate by RT-PCR, BPH induced animal model. Conditions: sulpiride 40 mg/kg alone, 60 days, rat. The format is in vivo, Sprague-Dawley male rats. From the text: As androgen, the most commonly used hormone in the body is testosterone. But the most powerful hormone of androgens related to development of prostate is 5α-dihydrotestosterone (DHT) which is made by combining testosterone and 5α-reductase. […] It is reported that DHT made by hyperprolactinemia make more gaining weight in lateral lobe than dorsal lobe or ventral lobe of prostate. Based on this fact, the experiment using PEP1 according to example 1 only or co-administration with other test material to BPH induced animal model was done as follows. […] Also before administrating the test materials, the body weights of every animal were measured and recorded.
Sulpiride as test material was purchased from Sigma Chemical Co. (St. Louis, Mo., USA) and used for the experiment. […] The dosage of the administration was calculated based on the concentration of 0.5 ml/kg with reflecting the body weight measured every day. […]
After administrating sulpiride with test materials for 60 days and collecting ventral prostate, the effect to the expression of 5α-reductase was measured by using RT-PCR. […] After then RNA was quantified by using spectrophotometer. […] For the control of quantification in electrophoresis, GAPDH whose expression level is not changed by other drugs was used. […]

[2] abbreviates: Sulpiride 40 mg/kg 60 days + Finasteride 5 mg/kg.
Where [3] appears, read: Sulpiride 40 mg/kg 60 days alone (BPH induction).

In the case of `CC(C)(C)NC(=O)[C@H]1CC[C@H]2[C@@H]3CC[C@H]4NC(=O)C=C[C@]4(C)[C@H]3CC[C@]12C` [Finasteride, finasteride], in assay [1] (setting [2]), the Prostate index is reported as 0.157, the Weight of prostate is given as 0.75 ± 0.06 g and the “Weight of seminal vesicle” value is reported as 0.49 ± 0.02 g.
Regarding `CCN1CCCC1CNC(=O)c1cc(S(N)(=O)=O)ccc1OC` (stereo not shown) [Sulpiride, sulpiride], in the assay with 5α-reductase, the “Level of 5α-reductase expression in ventral prostate (RT-PCR)” value is on record as “increased”. In assay [1] (setting [3]), the Weight of prostate was found to be 1.59 ± 0.05 g and the “Weight of seminal vesicle” value stood at 1.23 ± 0.11 g. The Prostate index in assay [1] (Sulpiride 40 mg/kg 60 days alone (BPH induction), equation Final prostate weight/body weight) was found to be 0.303.
